tested on: not listed separately; test: Hydrolysis assay: hydrolysis of prodrug to parent species in human liver S9; format: in vitro ADME; conditions: human liver S9 1 mg protein/mL, prodrug 10 μM, 37° C., pH 7.4, 1 mM NADPH
Method: Hydrolysis Assay: Analysis of Hydrolysis of Prodrug to Parent Species
The stability of 8 different prodrugs was investigated in human liver S9 microsomes. Incubations of prodrugs (10 μM) with liver S9 (1 mg protein/mL) were carried out at 37° C. in a phosphate buffer, pH 7.4, containing 1 mM NADPH. Control incubations contained BSA (1.1 mg/mL) instead of liver S9 microsomes. Aliquots were removed at 0, 5, 15, 30, 60 and 120 min, treated with 4 volumes of acetonitrile containing 2% formic acid and an internal standard, and centrifuged. The supernatants were analyzed by LC-MS/MS for prodrug disappearance and appearance of active drug. The half-life of the prodrug was calculated from the % prodrug remaining at different time points calculated from on the peak area ratio relative to t=0. The amount of active drug generated at the different time points was determined using a standard curve.

Question: Which “Half-life (min) of the conversion of the prodrug to the carboxylic acid” value does the source give for `CCCCCCCOC(=O)[C@H]1CC[C@H](C(C)(O)c2ccc(-c3cc(C)cc(Nc4cc(C(F)F)ccn4)n3)cn2)CC1` (single isomer, unassigned) [Example 19-10, heptyl trans-4-[(1R or 1S)-1-(6-{[4-(difluoromethyl)pyridin-2-yl]amino}-4-methyl-2,3′-bipyridin-6′-yl)-1-hydroxyethyl] cyclohexanecarboxylate] here?
Answer: 40 min

Question: With `COCCOC(=O)[C@H]1CC[C@H](C(C)(O)c2ccc(-c3cc(C)cc(Nc4cc(C(F)F)ccn4)n3)cn2)CC1` (single isomer, unassigned) [Example 19-15, 2-methoxyethyl trans-4-[(1R or 1S)-1-(6-{[4-(difluoromethyl)pyridin-2-yl]amino}-4-methyl-2,3′-bipyridin-6′-yl)-1-hydroxyethyl] cyclohexanecarboxylate] as the compound, how does the “Half-life (min) of the conversion of the prodrug to the carboxylic acid” value read?
Answer: 3.9 min

same assay, conditions: human liver S9 1 mg protein/mL, prodrug 10 μM, 37° C., pH 7.4, 1 mM NADPH; read-out: Half-life (min) of the conversion of the prodrug to the carboxylic acid

Question: Which half-life at 10 μM does the source give for `CCOC(=O)[C@H]1CC[C@H](C(C)(O)c2ccc(-c3cc(C)cc(Nc4cc(C(F)F)ccn4)n3)cn2)CC1` (single isomer, unassigned) [Example 17, Ethyl trans-4-[(1R or 1S)-1-(6-{[4-(difluoromethyl)pyridin-2-yl]amino}-4-methyl-2,3′-bipyridin-6′-yl)-1-hydroxyethyl]cyclohexanecarboxylate] here?
Answer: 5.6 min

target: recombinant human GST-Syk (Homo sapiens (Human), UniProt P43405); test: Homogeneous Time-Resolved Fluorescence (HTRF) assay for the recombinant human Syk enzyme; format: biochemical; conditions: recombinant human GST-Syk 5 pM, ATP 25 μM, read-out: rhSyk IC50
Procedure, shortened: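 HTRF read-out of phosphorylation of a biotinylated Syk-site peptide (250 nM final) by a GST-tagged human Syk fusion. Reaction initiated with ATP at 25 μM final plus 5 mM magnesium final. Compound potency taken from inhibition of human Syk activity.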

Question: Which IC50 does the source give for `CCOC(=O)[C@H]1CC[C@H](C(C)(O)c2ccc(-c3cc(C)cc(Nc4cc(C(F)F)ccn4)n3)cn2)CC1` (single isomer, unassigned) [Example 17, Ethyl trans-4-[(1R or 1S)-1-(6-{[4-(difluoromethyl)pyridin-2-yl]amino}-4-methyl-2,3′-bipyridin-6′-yl)-1-hydroxyethyl]cyclohexanecarboxylate] here?
Answer: 18 nM

Question: With `CCCCCCCOC(=O)[C@H]1CC[C@H](C(C)(O)c2ccc(-c3cc(C)cc(Nc4cc(C(F)F)ccn4)n3)cn2)CC1` (single isomer, unassigned) [Example 19-10, heptyl trans-4-[(1R or 1S)-1-(6-{[4-(difluoromethyl)pyridin-2-yl]amino}-4-methyl-2,3′-bipyridin-6′-yl)-1-hydroxyethyl] cyclohexanecarboxylate] as the compound, how does the IC50 read?
Answer: 670 nM

Question: Which IC50 does the source give for `COCCOC(=O)[C@H]1CC[C@H](C(C)(O)c2ccc(-c3cc(C)cc(Nc4cc(C(F)F)ccn4)n3)cn2)CC1` (single isomer, unassigned) [Example 19-15, 2-methoxyethyl trans-4-[(1R or 1S)-1-(6-{[4-(difluoromethyl)pyridin-2-yl]amino}-4-methyl-2,3′-bipyridin-6′-yl)-1-hydroxyethyl] cyclohexanecarboxylate] here?
Answer: 6.4 nM

Question: Which IC50 does the source give for `Cc1cc(Nc2cc(C(F)(F)F)ccn2)nc(-c2ccc(NC3CCN(C(N)=O)CC3)nc2)c1` [Example 7, 4-(4-Methyl-6-(4-(trifluoromethyl)pyridin-2-ylamino)-2,3′-bipyridin-6′-ylamino)piperidine-1-carboxamide] here?
Answer: 4 nM

Question: With `Cc1cc(Nc2cc(C(F)(F)F)ccn2)nc(-c2ccc(N3CCCC(NC(N)=O)C3)nc2)c1` (stereo not drawn) [Example 7-1] as the compound, how does the IC50 read?
Answer: 5 nM

Question: Which IC50 does the source give for `Cc1cc(Nc2cc(C(F)(F)F)ccn2)nc(-c2ccc(C3(O)CCN(C(=O)c4ccc5cc[nH]c5n4)CC3)nc2)c1` [Example 9, 4-(4-Methyl-6-{[4-(trifluoromethyl)pyridin-2-yl]amino}-2,3′-bipyridin-6′-yl)-1-(1H-pyrrolo[2,3-b]pyridin-6-ylcarbonyl)piperidin-4-ol] here?
Answer: 9 nM

Question: For `Cc1cc(Nc2cc(C(F)(F)F)ccn2)nc(-c2ccc(C3(O)CCN(C(=O)c4ccc5cccnc5c4)CC3)nc2)c1` [Example 9-1], which IC50 is on record?
Answer: 30 nM

Question: Which IC50 does the source give for `Cc1cc(Nc2cc(C(F)(F)F)ccn2)nc(-c2ccc(C3(O)CCN(C(=O)c4ccc5cc[nH]c5c4)CC3)nc2)c1` [Example 9-2] here?
Answer: 13 nM

Question: With `Cc1cc(Nc2cc(C(F)(F)F)ccn2)nc(-c2ccc(C3(O)CCN(C(=O)c4c[nH]c5cc(C)ccc45)CC3)nc2)c1` [Example 9-3] as the compound, how does the IC50 read?
Answer: 10 nM

Question: Which IC50 does the source give for `Cc1cc(Nc2cc(C(F)(F)F)ccn2)nc(-c2ccc(C3(O)CCN(C(=O)c4ccc5nc(C)c(C)nc5c4)CC3)nc2)c1` [Example 9-4] here?
Answer: 5 nM

Question: Which IC50 does the source give for `Cc1cc(Nc2cc(C(F)(F)F)ccn2)nc(-c2ccc(C3(O)CCN(C(=O)c4[nH]c5ccccc5c4C)CC3)nc2)c1` [Example 9-5] here?
Answer: 112 nM

Question: With `Cc1cc(Nc2cc(C(F)(F)F)ccn2)nc(-c2ccc(C3(O)CCN(C(=O)c4cc(-c5ccncc5)[nH]n4)CC3)nc2)c1` [Example 9-6] as the compound, how does the IC50 read?
Answer: 12 nM

Question: With `Cc1cc(Nc2cc(C(F)(F)F)ccn2)nc(-c2ccc(C[C@H]3CC[C@@H](C(=O)O)CC3)nc2)c1` [Example 10 cis isomer, cis-4-[(4-methyl-6-{[4-(trifluoromethyl)pyridin-2-yl]amino}-2,3′-bipyridin-6′-yl)methyl]cyclohexanecarboxylic acid] as the compound, how does the IC50 read?
Answer: 1 nM

Question: Which IC50 does the source give for `Cc1cc(Nc2cc(C(F)(F)F)ccn2)nc(-c2ccc(C[C@H]3CC[C@H](C(=O)O)CC3)nc2)c1` [Example 10 trans isomer, trans-4-[(4-methyl-6-{[4-(trifluoromethyl)pyridin-2-yl]amino}-2,3′-bipyridin-6′-yl)methyl]cyclohexanecarboxylic acid] here?
Answer: < 0.5 nM

Question: With `Cc1cc(Nc2cc(C(F)(F)F)ccn2)nc(-c2ccc(NC3CCN(C(=O)c4cccc5c4NC(=O)C5)CC3)nc2)c1` [Example 447] as the compound, how does the IC50 read?
Answer: 6 nM

Reference: patent publication US9145391B2, “Bipyridylaminopyridines as Syk inhibitors” (Merck Sharp & Dohme Corp., priority 2011, dated 2015)
